Data reported in ChEMBL document CHEMBL5380844, “Discovery of a Novel, Potent, Orally Active, and Safe Inhibitor Targeting Human Mitochondrial RNA Polymerase” (J Med Chem, 2023).
Calls of active or inactive are those of the source. The calls are words filed in the database; no cut-off is given here.

What was measured:
[1] = system: A2780; experiment: Induction of apoptosis in human A2780 cells assessed as early apoptotic cells at 50 nM incubated for 96 hrs by Annexin-V/FITC and PI staining based flow cytometry analysis (reference value: 14.14%); format: functional
[2] = Inhibition of ND1 transcript level in human A2780 cells at 500 nM measured after 12 hrs by RT-qPCR analysis relative to control; format: functional
[3] = system: A2780; experiment: Antiproliferative activity against human A2780 cells incubated for 168 hrs by SRB method; format: functional, cell-based; conditions: A2780, 168 h
[4] = system: A2780; experiment: Inhibition of colony formation in human A2780 cells assessed as decrease in size of colonies at 10 nM incubated for 14 days by crystal violet staining based analysis; format: functional, cell-based; conditions: time 14.0 day
[5] = system: A2780; experiment: Inhibition of colony formation in human A2780 cells at 500 nM incubated for 14 days by crystal violet staining based analysis; format: functional, cell-based; conditions: time 14.0 day
[6] = system: A2780; experiment: Induction of cell cycle arrest in human A2780 cells assessed as accumulation of cells at G1 phase at 50 nM measured after 96 hrs by PI staining based flow cytometry analysis (reference value: 80.81%); format: functional
[7] = system: A2780; experiment: Induction of cell cycle arrest in human A2780 cells assessed as accumulation of cells at G2 phase at 50 nM measured after 96 hrs by PI staining based flow cytometry analysis (reference value: 4.49%); format: functional
[8] = system: A2780; experiment: Induction of cell cycle arrest in human A2780 cells assessed as accumulation of cells at G2 phase at 100 nM measured after 96 hrs by PI staining based flow cytometry analysis (reference value: 4.49%); format: functional
[9] = system: A2780; experiment: Induction of apoptosis in human A2780 cells assessed as viable cells at 100 nM incubated for 96 hrs by Annexin-V/FITC and PI staining based flow cytometry analysis (reference value: 89.2%); format: functional; conditions: read-out: Activity
[10] = system: A2780; experiment: Induction of apoptosis in human A2780 cells assessed as viable cells at 200 nM incubated for 96 hrs by Annexin-V/FITC and PI staining based flow cytometry analysis (reference value: 89.2%); format: functional; conditions: read-out: Activity
[11] = system: A2780; experiment: Induction of apoptosis in human A2780 cells assessed as late apoptotic cells at 100 nM incubated for 96 hrs by Annexin-V/FITC and PI staining based flow cytometry analysis (reference value: 3.79%); format: functional
[12] = system: A2780; experiment: Induction of apoptosis in human A2780 cells assessed as necrotic cells at 50 nM incubated for 96 hrs by Annexin-V/FITC and PI staining based flow cytometry analysis (reference value: 2.07%); format: functional
[13] = system: A2780; experiment: Induction of apoptosis in human A2780 cells assessed as necrotic cells at 200 nM incubated for 96 hrs by Annexin-V/FITC and PI staining based flow cytometry analysis (reference value: 2.07%); format: functional
[14] = system: A2780; experiment: Induction of mitochondrial membrane potential changes in human A2780 cells at upto 500 nM measured after 96 hrs by JC-1 staining based immunofluorescence assay; format: functional, cell-based
[15] = system: A2780; experiment: Downregulation of NDUFB8 level in human A2780 cells by Western blot analysis; format: functional, cell-based; conditions: dose <= 500.0 nM
[16] = system: A2780; experiment: Downregulation of COX1 level in human A2780 cells by Western blot analysis; format: functional, cell-based; conditions: dose <= 500.0 nM
[17] = system: A2780; experiment: Inhibition of MT-ND6 expression in human A2780 cells at 100 nM incubated for 12 hrs by RNA sequencing analysis; format: functional, cell-based
[18] = system: A2780; experiment: Inhibition of MT-CYB expression in human A2780 cells at 100 nM incubated for 12 hrs by RNA sequencing analysis; format: functional, cell-based
[19] = system: A2780; experiment: Inhibition of MT-ATP8 expression in human A2780 cells at 100 nM incubated for 12 hrs by RNA sequencing analysis; format: functional, cell-based
[20] = system: A549; experiment: Antiproliferative activity against human A549 cells incubated for 168 hrs by SRB method; format: functional, cell-based; conditions: A549, 168 h
[21] = Antiproliferative activity against human PBMC cells incubated for 168 hrs by SRB method; format: functional, cell-based
[22] = Apparent permeability across apical to basolateral side in human Caco-2 cells at 3 uM incubated for 2 hrs by LC-MS/MS analysis; format: ADME, cell-based
[23] = Efflux ratio of apparent permeability across basolateral to apical side over apical to basolateral side in human Caco2 cells at 3 uM incubated for 2 hrs by LC-MS/MS analysis; format: ADME, cell-based; conditions: Caco-2
[24] = target: Cytochrome P450 2C9 (Homo sapiens, UniProt P11712); experiment: Inhibition of CYP2C9 (unknown origin) using diclofenac as substrate in presence of NADPH by LC/MS/MS analysis; format: ADME
[25] = target: Cytochrome P450 2D6 (Homo sapiens, UniProt P10635); experiment: Inhibition of CYP2D6 (unknown origin) using bufuralol as substrate in presence of NADPH by LC/MS/MS analysis; format: ADME
[26] = Cmax in ICR mouse at 10 mg/kg, po measured upto 24 hrs by LC-MS/MS analysis; format: ADME, organism-based; design: time < 24 hrs, dose 10 mg/kg, route po; conditions: in vivo
[27] = AUC (0 to t) in ICR mouse at 1 mg/kg, iv measured upto 24 hrs by LC-MS/MS analysis; format: ADME, organism-based; design: time < 24 hrs, dose 1 mg/kg, route iv; conditions: in vivo
[28] = AUC (0 to infinity) in ICR mouse at 10 mg/kg, po measured upto 24 hrs by LC-MS/MS analysis; format: ADME, organism-based; design: time < 24 hrs, dose 10 mg/kg, route po; conditions: in vivo
[29] = Half life in ICR mouse at 10 mg/kg, po measured upto 24 hrs by LC-MS/MS analysis; format: ADME, organism-based; conditions: in vivo
[30] = Oral bioavailability in ICR mouse at 10 mg/kg measured upto 24 hrs by LC-MS/MS analysis; format: ADME, organism-based; conditions: in vivo
[31] = system: A2780; experiment: Effect on 18S mRNA level in human A2780 cells by RT-qPCR analysis; format: functional, cell-based
[32] = system: A2780; experiment: Effect on 5S mRNA level in human A2780 cells by RT-qPCR analysis; format: functional, cell-based
[33] = system: A2780; experiment: Inhibition of mitochondrial transcript in human A2780 cells incubated for 12 hrs followed by compound removal and measured after 12 hrs by RT-qPCR analysis; format: functional, cell-based
[34] = system: A2780; experiment: Antitumor activity against human A2780 cells xenografted in BALB/c nude mouse model assessed as reduction in tumor weight at 50 mg/kg, po administered daily and measured after 27 days relative to control; format: functional; design: scale not given: the % may be the effect or the level left; conditions: time 27 day
[35] = Toxicity in Balb/c mouse assessed as effect on body weight loss at 50 to 100 mg/kg, po measured after 27 days; format: organism-based; conditions: in vivo, 648 h, dose 50-100 mg/kg, time 27 day
[36] = system: A2780; experiment: Antitumor activity against human A2780 cells xenografted in BALB/c nude mouse model assessed as reduction in UQCRC2 level at 100 mg/kg, po by immunoblotting analysis; format: functional, organism-based
[37] = system: A2780; experiment: Antitumor activity against human A2780 cells xenografted in BALB/c nude mouse model assessed as reduction in […] level at 100 mg/kg, po by immunoblotting analysis; format: functional, organism-based
[38] = system: A2780; experiment: Antitumor activity against human A2780 cells xenografted in BALB/c nude mouse model assessed as reduction in NDUFB level at 100 mg/kg, po by immunoblotting analysis; format: functional, organism-based
[39] = Toxicity in Balb/c mouse assessed as effect on heart at 100 mg/kg by H and E staining based analysis; format: organism-based; conditions: in vivo
[40] = Acute toxicity in Balb/c mouse assessed as effect on kidney 100 mg/kg measured after 27 days by H and E staining based analysis; format: organism-based; conditions: in vivo, 648 h, time 27 day

Cytochrome P450 2D6, sequence (P10635 whole entry): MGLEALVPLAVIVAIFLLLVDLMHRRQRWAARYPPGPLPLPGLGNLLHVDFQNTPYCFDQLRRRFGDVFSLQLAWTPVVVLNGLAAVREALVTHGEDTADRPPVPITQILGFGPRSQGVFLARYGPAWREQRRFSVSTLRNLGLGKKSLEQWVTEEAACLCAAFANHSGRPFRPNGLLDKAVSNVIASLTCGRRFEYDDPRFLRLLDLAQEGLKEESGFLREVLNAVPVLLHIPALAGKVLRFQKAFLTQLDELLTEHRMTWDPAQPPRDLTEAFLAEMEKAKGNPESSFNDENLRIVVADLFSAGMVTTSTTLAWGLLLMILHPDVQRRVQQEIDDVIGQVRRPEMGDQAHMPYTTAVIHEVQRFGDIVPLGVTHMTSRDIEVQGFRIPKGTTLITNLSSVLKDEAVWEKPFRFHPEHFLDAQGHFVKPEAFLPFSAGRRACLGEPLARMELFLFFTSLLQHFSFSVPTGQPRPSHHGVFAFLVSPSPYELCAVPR
Cytochrome P450 2C9, sequence (P11712 whole entry): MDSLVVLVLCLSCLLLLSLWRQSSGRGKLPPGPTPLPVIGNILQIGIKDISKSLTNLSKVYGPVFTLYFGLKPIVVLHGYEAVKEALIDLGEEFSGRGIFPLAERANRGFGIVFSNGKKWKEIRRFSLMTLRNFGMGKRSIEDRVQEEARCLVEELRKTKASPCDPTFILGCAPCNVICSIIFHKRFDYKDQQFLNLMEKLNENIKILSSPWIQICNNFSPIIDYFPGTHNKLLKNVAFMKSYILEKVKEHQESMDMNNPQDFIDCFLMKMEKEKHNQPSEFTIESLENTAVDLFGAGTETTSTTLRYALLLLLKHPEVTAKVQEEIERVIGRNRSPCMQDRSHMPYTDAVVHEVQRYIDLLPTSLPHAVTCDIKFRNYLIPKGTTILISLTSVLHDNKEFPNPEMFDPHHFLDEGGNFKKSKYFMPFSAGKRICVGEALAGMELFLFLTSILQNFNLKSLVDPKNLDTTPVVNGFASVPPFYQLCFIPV

Cc1ccc(-c2cc(=O)oc3cc(O[C@H](C)C(=O)N4CC5CCC(C4)N5C)ccc23)c(C)c1
Activity [1]: 2.22%
inhibition at 0.5 µM [2]: 15%
IC50 [3]: 0.068 µM
inhibition [4]: Active
inhibition [5]: inactive
Activity [6]: 85.51%
Activity [7]: 3.7%
Activity [8]: 3.73%
viability at 0.1 µM [9]: 90.2%
viability at 0.2 µM [10]: 90.7%
Activity [11]: 5.11%
Activity [12]: 2.29%
Activity [13]: 4.01%
Activity [14]: inactive
Activity [15]: Dose-Dependent Effect
Activity [16]: Dose-Dependent Effect
inhibition [17]: Active
inhibition [18]: Active
inhibition [19]: Active
IC50 [20]: 0.721 µM
IC50 [21]: > 50 µM
Papp A→B at 2 h, 3 µM [22]: 6.93 ×10⁻⁶ cm/s
efflux ratio at 2 h, 3 µM [23]: 1.2
IC50 [24]: 34.7 µM
IC50 [25]: > 40 µM
Cmax [26]: 369 ng/mL
AUC(0-t) at 24 h [27]: 424 ng·h/mL
AUC(0-inf) [28]: 1900 ng·h/mL
half-life [29]: 2.3 h
bioavailability [30]: 43.2%
Activity [31]: inactive
Activity [32]: inactive
inhibition [33]: inactive
Activity [34]: 54.82%
Activity [35]: Non-Toxic
Activity [36]: Active
Activity [37]: Active
Activity [38]: Active
Activity [39]: Non-Toxic
Activity [40]: Non-Toxic
